Measured values published in US20070027198A1, “Crystal of heterocyclic compound” (priority 2003, published 2007).

Assays:
Type in all cases: physicochemical
[1] = Investigation of thermodynamic stability by differential scanning calorimetry
Experimental: The differential scanning calorimetry in Experimental Example 5 was made by means of a Perkin Elmer DSC7 (for temperature-raising rate of 1° C./minute, the range of measurement: 130° C.→160° C.; and for temperature-raising rate of 2, 5, 7 or 10° C./minute, the range of measurement: 120° C.→170° C.).
The thermodynamic stability of the crystal of Compound A was investigated by differential scanning calorimetry.
The differential scanning calorimetry was carried out at a temperature-raising rate of 1, 2 or 5° C./minute for Form I crystal of Compound A and at 1, 5, 7 or 10° C./minute for Form II crystal. The results are shown in FIG. 7 (a chart of differential scanning calorimetry in Form I crystal), FIG. 8 and FIG. 9 (a chart of differential scanning calorimetry in Form II crystal).

[2] = Investigation of hygroscopicity (weight change and powder X-ray diffraction after storage in a desiccator); conditions: for transformation of crystalline form (powder X-ray diffraction before and after storage): 25° C. in 93% RH for 14 days; for weight change caused by absorption of moisture: 93% RH at 25° C., stored up to 14 days
Experimental: The powder X-ray diffraction spectra were measured by means of a Rigaku Corporation's RAD-2B (target: Cu; Voltage: 40 kV; current: 20 mA; scanning speed: 4°/minute; measurement error: 2θ±0.2°).
Form I crystals and Form II crystals of Compound A, approximately 1 g each, were precisely weighed in weighing bottles, which were then kept in a desiccator of 93% RH at 25° C. […] In addition, the powder X-ray diffraction spectra were measured before and after preservation. The results are shown in FIG. 3 (weight change of Form I crystal), FIG. 4 (weight change of Form II crystal), FIG. 5 (powder X-ray diffraction spectrum of Form I crystal), and FIG. 6 (powder X-ray diffraction spectrum of Form II crystal).

[3] = Investigation of transformation mediated by solvents (suspension in toluene, crystalline form confirmed by DSC); conditions: 50 mg suspended in 1 ml of toluene, stirred overnight
Experimental: The differential scanning calorimetry in Example 1 and Example 2 was made by means of a Perkin Elmer DSC7 (temperature-raising rate: 10° C./minute; the range of measurement: 50° C. (constant temperature 1 minute)→180° C.). The differential scanning calorimetry in Experimental Example 4 was made by means of Shimadzu Corporation's DSC-50 (temperature-raising rate: 2° C./minute; the range of measurement: room temperature→220° C.).
The influence of toluene (solvent) on the crystalline form of Compound A was investigated.
Form I crystals and Form II crystals of Compound A, 50 mg each, were weighed and respectively suspended in 1 ml of toluene, and stirred overnight. Thereafter, the crystals were separated by filtration and dried, of which the crystalline form was confirmed by a differential scanning calorimetry.

Row | endothermic peaks in differential scanning calorimetry ([1]; temperature-raising rate of 1, 2 or 5° C./minute) | weight change caused by absorption of moisture ([2]; listed as Form I crystals) [%] | transformation of crystalline form in solvent [3] | peak of Form I crystal in differential scanning calorimetry ([1]; temperature-raising rate of 10° C./minute) | transformation of crystalline form (powder X-ray diffraction before and after storage) [2] | weight change caused by absorption of moisture [2] | Compound | transformation of crystalline form (powder X-ray diffraction before and after storage) ([2]; listed as Form I crystals) | peak of Form I crystal in differential scanning calorimetry ([1]; lower temperature-raising rate: 7° C./minute, 5° C./minute, 1° C./minute) | transformation of crystalline form in solvent ([3]; listed as form II crystal)
1 | only one endothermic peak | 2.3 | transformed into Form II crystal | – | – | – | Cc1ccc(-c2nc(CCCC[C@H]3CO[C@@](C)(C(=O)O)OC3)c(C)o2)cc1 [Form I crystal, 2-methyl-c-5-[4-[5-methyl-2-(4-methylphenyl)-1,3-oxazol-4-yl]butyl]-1,3-dioxane-r-2-carboxylic acid] | transformation of crystalline form (from Form I to Form II) was recognized | – | –
2 | – | – | – | no peak of Form I crystal was confirmed | no transformation of crystalline form | no change of weight | Cc1ccc(-c2nc(CCCC[C@H]3CO[C@@](C)(C(=O)O)OC3)c(C)o2)cc1 [Form II crystal, 2-methyl-c-5-[4-[5-methyl-2-(4-methylphenyl)-1,3-oxazol-4-yl]butyl]-1,3-dioxane-r-2-carboxylic acid] | – | a peak resulting from Form I crystal was recognized | no transformation of crystalline form occurs
